Data set [1] relates to rat neutrophils. As to conditions: rat neutrophils stimulated with fMLP; concentration of 3 mg/mL; cited from earlier work.
The test system of another data set is N9 cells. The data set can be described thus: NO production (nitrite accumulation, Griess reaction) in LPS/IFN-γ-stimulated microglial cells. The data set is classed as cell-based, murine. As to conditions: for % of inhibition of NO2− accumulation at the highest concentration, N9 cells: LPS/IFN-γ, at the highest concentration (bound given in the source); for IC50: Mus musculus, N9, LPS (10 ng/mL)/IFN-γ (10 unit/mL), 24 hrs, read-out: IC50, accumulation of NO2− in culture media, N9 cells. The protocol:
Cells of murine microglial cell line N9 (kindly provided by Dr. P. Ricciardi-Castagnoli, CNR Cellular and Molecular Pharmacology Center, Italy) (S. B. Corradin et al. (1993), Glia, 7, 255-262) were suspended in Iscove's Modified Dulbecco's medium containing 5% heat-inactivated FCS and antibiotics and then plated into 96-well tissue-culture plates at 8×10^4 cells/200 μL per well. The cells were treated with DMSO or a tested compound at 37° C. for 1 hr, followed by stimulation with LPS (10 ng/mL)/IFN-γ (10 unit/mL) for 24 hrs. Thereafter, the medium in each well was collected and stored at −70° C. until use. The final volume of DMSO in the reaction mixture was<0.5%
(§1) The production of NO in cell medium was determined by measuring the content of nitrite based on the Griess reaction (L. Mingghetti et at (1997), Glia, 19, 152-160). Briefly, 40 μL of 5 mM sulfanilamide, 10 μL of 2 M HCl, and 20 μL of 40 mM naphthylethylenediamine were added into 150 μL culture medium in sequence. After 10 min of incubation at room temperature, absorbance was measured at 550 nm in a microplate reader. A standard nitrite curve was generated in the same fashion, using NaNO2.

For data set [2], the system named is rat neutrophils. The data set can be described thus: Superoxide anion generation in neutrophils stimulated with fMLP/CB or PMA (cytochrome c reduction). The data set is classed as cell-based. The settings on record: Neutrophil, rat neutrophils; for inhibition: at the highest concentration (bound given in the source). Here is the method:
Superoxide anion generation was measured in terms of superoxide dismutase-inhibitable cytochrome c reduction (M. Market et al. (1984), Methods Enzymol., 105, 358). Neutrophil suspension was preincubated with DMSO or a tested compound for 3 min, and then superoxide dismutase or Hank's balanced salt solution (HBSS) was added into the blank and test wells, respectively. The final volume of DMSO in the reaction mixture was≦0.5%. After addition of cytochrome c, reaction was initiated by challenge with formyl-Met-Leu-Phe (fMLP) (0.3 μM)/cytochalasin B (CB) (5 μg/mL) or phorbol myristate acetate (PMA) (3 nM). Thirty minutes later, the reaction was terminated by centrifugation and the absorbance changes of supernatant were monitored at 550 nm in a microplate reader. In the experiment, Trifluoperazine was used as a positive control

In another data set the test system is RAW 264.7 cells. The data set can be described thus: NO production (nitrite accumulation, Griess reaction) in LPS-stimulated macrophage-like cells. The settings on record: for % of inhibition of NO2− accumulation at the highest concentration, RAW 264.7 cells: LPS, at the highest concentration (bound given in the source); for IC50: Mus musculus, RAW264.7, LPS (1 μg/mL), 24 hrs, read-out: IC50, accumulation of NO2− in culture media, RAW 264.7 cells. The data set is classed as cell-based, mouse. Here is the method:
RAW 264.7 mouse macrophage-like cell line (American Type Culture Collection (ATCC), PO Box 1549, Manassas, Va. 20108 USA) was plated in 96 well tissue-culture plates in Dulbecco's Modified Eagle Medium (DMEM) supplemented with 10% fetal calf serum (FCS), 100 units/ml of penicillin and streptomycin at 2×10^5 cells/200 μL per well. Cells were allowed to adhere overnight. The cells were treated with DMSO or a tested compound at 37° C. for 1 hr. followed by stimulation with 1 μg/mL of LPS (Escherichia coli, serotype 0111:B4) for 24 hrs. Thereafter, the medium in each well was collected and stored at −70° C. until use. The final volume of DMSO in the reaction mixture was≦0.5%.
as §1

Data set [3] concerns rat neutrophils. Nature of the data set: Neutrophil degranulation stimulated with fMLP/CB (release of β-glucuronidase and lysozyme). The data set is classed as cell-based. The settings on record: rat neutrophils; for IC50: Neutrophil, fMLP (1 μM)/CB (5 μg/mL). Here is the method:
Blood was withdrawn from rat (Sprague-Dawley, 250-300 g, 10-12 weeks old) and mixed with EDTA. […] Cell suspension was preincubated at 37° C. with DMSO or drugs for 10 min, and then challenged with fMLP (1 μM)/CB (5 μg/mL). The final volume of DMSO in the reaction mixture was≦0.5%. […] After treatment of the cell suspension with Triton X-100, the total content of lysozyme and β-glucuronidase was measured and the percentage release was calculated. In the experiment, Trifluoperazine was used as a positive control.

Data set [4] has as its system rat peritoneal mast cells. The data set can be described thus: Mast cell degranulation stimulated with compound 48/80 (release of β-glucuronidase and histamine). The data set is classed as cell-based. As to conditions: for IC50: Mast cell, compound 48/80 (10 μg/mL); for % of inhibition of Histamine release at the highest concentration / % of inhibition of β-Glucuronidase release at the highest concentration: compound 48/80, at the highest concentration (bound given in the source). Here is the method:
Heparinized Tyrode's solution was injected into the peritoneal cavity of exsanguinated rat (Sprague-Dawley, 250-300 g, 10-12 weeks old). […] Cell pellets were washed and suspended in Tyrode's solution with 0.1% BSA to 1×10^6 cells/mL. Cell suspension was then preincubated at 37° C. with DMSO or a tested compound for 5 min. The final volume of DMSO in the reaction mixture was≦0.5%. […] After treatment of the cell suspension with Triton X-100, the total content of β-glucuronidase and histamine was measured, and the percentage release was calculated. In the experiment, Mepacrine was used as a positive control.

Where [5] appears, read: PMA (3 nM), read-out: IC50, superoxide anion generation, PMA.
Setting [6] is: fMLP (0.3 μM)/CB (5 μg/mL), read-out: IC50, superoxide anion generation, fMLP/CB.
The mark [7] stands for this setting: read-out: IC50, release of Lysozyme.
[8] abbreviates: read-out: IC50, release of β-Glucuronidase.
[9] abbreviates: read-out: IG50, release of Histamine.
Where [10] appears, read: read-out: IG50, release of β-Glucuronidase.
Setting [11] is: fMLP/CB, at the highest concentration (bound given in the source).

Like-named read-outs stand apart in the source and are kept apart here.

For `CC(C)=CCc1cc(C(=O)/C=C/c2ccc(O)c(O)c2)c(O)cc1O` [Brousschalcone A], in the data set on rat neutrophils [1], the “% inhibition of release of lysozyme” value is on record as 68.0±13.4% and the “% inhibition of release of β-glucuronidase” value is recorded as 51.1±12.6%.

Turning to `CCCOc1ccc(O)c(C(=O)/C=C/c2ccc(Cl)c(Cl)c2)c1` [Compound 6, 3,4-Dichloro-2′-hydroxy-5′-propoxy-chalcone], the melting point (commonly the temperature of the solid-liquid transition) was 97 to 99 °C. For the same compound, in the data set with N9 cells, the “% of inhibition of NO2− accumulation at the highest concentration, N9 cells” value came out at 26.4 ± 2.3% and the IC50 was over 30 µM. In the data set on rat neutrophils [2] (PMA (3 nM)), the inhibition – broadly, the share of the control response that was lost under treatment – was determined as 49.9%. Moreover, the IC50 in the data set with rat neutrophils [2] (setting [5]) is over 30 µM. The IC50 with rat neutrophils [2] (setting [6]) is 17.7 ± 7.2 µM. In the data set on RAW 264.7 cells, the “% of inhibition of NO2− accumulation at the highest concentration, RAW 264.7 cells” value was found to be 7.5 ± 0.4% and the IC50 is over 10 µM. Further, in the data set on rat neutrophils [3] (setting [7]), the IC50 worked out at 6.6 ± 0.4 µM. Also, the IC50 in the data set on rat neutrophils [3] (setting [8]) amounted to 6.2 ± 0.3 µM. In addition, the IC50 in data set [4] (setting [9]) was over 30 µM. The IC50 in data set [4] (setting [10]) was over 30 µM. In addition, in data set [4], the “% of inhibition of Histamine release at the highest concentration” value is recorded as 47.6 ± 2.4% and the “% of inhibition of β-Glucuronidase release at the highest concentration” value is on record as 49.2 ± 2.0%.

With `O=C(/C=C/c1cccs1)c1cccs1` [Compound 8, 2′,2-Dithienylchalcone], the melting point was in the range of 95 to 97 °C. Besides, in the data set with N9 cells, the “% of inhibition of NO2− accumulation at the highest concentration, N9 cells” value came to 15.2 ± 0.5% and the IC50 was over 30 µM. For the same compound, the inhibition with rat neutrophils [2] (PMA (3 nM)) was found to be 35.6%. Besides, the IC50 with rat neutrophils [2] (setting [5]) is over 30 µM. Further, the IC50 with rat neutrophils [2] (setting [6]) was 24.3 ± 3.2 µM. In the data set on RAW 264.7 cells, the “% of inhibition of NO2− accumulation at the highest concentration, RAW 264.7 cells” value is 12.5 ± 2.2% and the IC50 is over 30 µM. For the same compound, in the data set with rat neutrophils [3] (setting [7]), the IC50 is over 30 µM. Moreover, in the data set on rat neutrophils [3] (setting [8]), the IC50 was over 30 µM. In the data set with rat neutrophils [3] (setting [11]), the “% of inhibition of Lysozyme release at the highest concentration” value came out at 30.0 ± 1.4% and the “% of inhibition of β-Glucuronidase release at the highest concentration” value worked out at 46.6 ± 0.7%. Besides, the IC50 in data set [4] (setting [9]) was over 30 µM. In addition, the IC50 in data set [4] (setting [10]) was over 30 µM. Moreover, in data set [4], the “% of inhibition of Histamine release at the highest concentration” value is reported as 20.9 ± 1.2% and the “% of inhibition of β-Glucuronidase release at the highest concentration” value was 17.3 ± 2.6%.

Values taken from patent publication US20040176471A1, “Novel chalcone derivatives and pharmaceutical compositions comprising the same” (KAOHSIUNG MEDICAL UNIVERSITY, priority 2003, published 2004).
